# pKi: −log10 of the molar value. Non-standard residues stand in square brackets, D forms with d. Residues, ends and D or L forms follow the SMILES beside them. Oic = O=C(O)[C@@H]1C[C@@H]2CCCC[C@@H]2N1; Hyp = O=C(O)[C@@H]1C[C@@H](O)CN1; Pip = O=C(O)[C@@H]1CCCCN1; Ac6c = NC1(C(=O)O)CCCCC1; Nle = CCCC[C@H](N)C(=O)O; Aze = O=C(O)[C@@H]1CCN1; Ac3c = NC1(C(=O)O)CC1
# Molecular target: Glutamate NMDA receptor (Rattus norvegicus) (UniProt P35439+Q00959+Q00960+Q00961+Q62645+Q8VHN2+Q9R1M7)
# Assay: Neuroprotective activity in rat hippocampal neurons at 100 uM
# Format: functional, tissue-based
# Conditions: Hippocampus
row,SMILES,Activity [%]
1,NCC(=O)NC1(C(=O)N[C@@H](CCC(=O)O)C(=O)O)CC1 (H-Gly-[Ac3c]-Glu-OH),27
2,NCC(=O)NC1(C(=O)N[C@@H](CCC(=O)O)C(=O)O)CCCCC1 (H-Gly-[Ac6c]-Glu-OH),27
3,NCC(=O)N1CC[C@H]1C(=O)N[C@@H](CCC(=O)O)C(=O)O (H-Gly-[Aze]-Glu-OH),27

# Molecular target: Glutamate NMDA receptor
# Assay: Displacement of L-[3H]glutamate from glutamate receptor in rat brain synaptic membrane
# Format: cell membranes
# Conditions: not given
row,pKi,SMILES
1,4.81,NCC(=O)N1C[C@@H](N)C[C@H]1C(=O)N[C@@H](CCC(=O)O)C(=O)O
2,< 4.00,NCC(=O)NC1(C(=O)N[C@@H](CCC(=O)O)C(=O)O)CC1 (H-Gly-[Ac3c]-Glu-OH)
3,< 4.00,NCC(=O)NC1(C(=O)N[C@@H](CCC(=O)O)C(=O)O)CCCCC1 (H-Gly-[Ac6c]-Glu-OH)
4,< 4.00,NCC(=O)N1CC[C@H]1C(=O)N[C@@H](CCC(=O)O)C(=O)O (H-Gly-[Aze]-Glu-OH)
5,5.03,NCC(=O)N1C[C@H](O)C[C@H]1C(=O)N[C@@H](CCC(=O)O)C(=O)O (H-Gly-[Hyp]-Glu-OH)
6,4.65,NCC(=O)N1[C@H](C(=O)N[C@@H](CCC(=O)O)C(=O)O)C[C@@H]2CCCC[C@@H]21 (H-Gly-[Oic]-Glu-OH)
7,4.66,NCCCC[C@H](N)C(=O)N1CCC[C@H]1C(=O)N[C@@H](CCC(=O)O)C(=O)O (H-Lys-Pro-Glu-OH)
8,4.71,CCCC[C@H](N)C(=O)N1CCC[C@H]1C(=O)N[C@@H](CCC(=O)O)C(=O)O (H-[Nle]-Pro-Glu-OH)

# The remaining lines, values behind:
row,SMILES,pKi
1,C[C@@H](N)C(=O)N1CCC[C@H]1C(=O)N[C@@H](CCC(=O)O)C(=O)O,5.27
2,NCC(=O)N1C2CCC1(C(=O)N[C@@H](CCC(=O)O)C(=O)O)CC2,6.32
3,C[C@H](N)C(=O)N1CCC[C@H]1C(=O)N[C@@H](CCC(=O)O)C(=O)O,5.58
4,N[C@@H](CC(=O)O)C(=O)N1CCC[C@H]1C(=O)N[C@@H](CCC(=O)O)C(=O)O (H-Asp-Pro-Glu-OH),4.38
5,NCC(=O)N1CCCC[C@H]1C(=O)N[C@@H](CCC(=O)O)C(=O)O (H-Gly-[Pip]-Glu-OH),5.62
6,CC[C@H](C)[C@H](N)C(=O)N1CCC[C@H]1C(=O)N[C@@H](CCC(=O)O)C(=O)O (H-Ile-Pro-Glu-OH),< 4.00
7,N[C@@H](Cc1ccccc1)C(=O)N1CCC[C@H]1C(=O)N[C@@H](CCC(=O)O)C(=O)O (H-Phe-Pro-Glu-OH),5.31

# From ChEMBL document CHEMBL1139037, “New Gly-Pro-Glu (GPE) analogues: expedite solid-phase synthesis and biological activity” (Bioorg Med Chem Lett, 2006)
